Test results reported in publication PMC10574601, “Benzophenanthridine Alkaloid Chelerythrine Elicits Necroptosis of Gastric Cancer Cells via Selective Conjugation at the Redox Hyperreactive C-Terminal Sec^498 Residue of Cytosolic Selenoprotein Thioredoxin Reductase” (Molecules, 2023).

Legend:
[1] = molecular target: T1, thioredoxin reductase 1 (TXNRD1) (Rattus norvegicus, UniProt O89049); assay: DTNB reduction assay after […] h incubation; desalting shows irreversibility; assay type: biochemical
T1 construct: recombinant rat TXNRD1, wild-type
T1 sequence (O89049 1-499): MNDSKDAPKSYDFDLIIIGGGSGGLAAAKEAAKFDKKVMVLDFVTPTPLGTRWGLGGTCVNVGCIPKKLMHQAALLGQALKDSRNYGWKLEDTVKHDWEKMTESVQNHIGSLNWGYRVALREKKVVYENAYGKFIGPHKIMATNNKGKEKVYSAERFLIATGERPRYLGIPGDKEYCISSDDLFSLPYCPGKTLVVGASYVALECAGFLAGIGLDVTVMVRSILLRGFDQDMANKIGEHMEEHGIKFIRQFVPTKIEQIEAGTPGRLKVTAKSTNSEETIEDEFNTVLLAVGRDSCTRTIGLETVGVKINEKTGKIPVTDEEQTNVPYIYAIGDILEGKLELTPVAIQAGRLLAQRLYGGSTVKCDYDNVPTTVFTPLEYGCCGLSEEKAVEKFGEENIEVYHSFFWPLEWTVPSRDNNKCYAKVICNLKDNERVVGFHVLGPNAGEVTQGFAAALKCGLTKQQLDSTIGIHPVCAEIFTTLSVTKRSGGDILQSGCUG

[2] = molecular target: T1, thioredoxin reductase 1 (TXNRD1); assay: NADPH oxidation at […] nm with […] TXNRD1; assay type: biochemical

## COc1ccc2c(c[n+](C)c3c4cc5c(cc4ccc23)OCO5)c1OC [Che, chelerythrine]
[1]
  IC50: 65.9 µM

## C[n+]1cc2c3c(ccc2c2ccc4cc5c(cc4c21)OCO5)OCO3 [San, sanguinarine]
[1]
  IC50: 46.7 µM

## O=C1C=CC(=O)c2c(O)cccc21 [juglone, 5-Hydroxy-1,4-naphthoquinone]
[2]
  NADPH oxidation at 340 nm with 30 nM TXNRD1: juglone, a substrate of TXNRD1, exhibited strong NADPH oxidation
